Results as given in US20240116918A1, “SUBSTITUTED TRICYCLIC COMPOUND AS PRMT5 INHIBITOR AND USE THEREOF” (NANJING SANHOME PHARMACEUTICAL CO., LTD., priority 2019, published 2024).

Columns and labels:
Z-138 cells = experiment: In vitro cell activity, Z-138 cells, CellTiter-Glo; type: cell-based; conditions: Z-138, 168 h, human mantle cell lymphoma cells, 7 days
Description: Test compounds: the compounds of the present invention prepared in the above example. Each compound was formulated into a 10 mM stock solution with DMSO, and finally diluted into 8 concentrations for detection, with the final concentrations being 33333.00 nM, 6666.60 nM, 1333.32 nM, 266.66 nM, 53.33 nM, 10.67 nM, 2.13 nM, and 0.43 nM for experiments in Z-138 cells.
2.1.1 Z-138 cell thawing: The cryovial for Z-138 cells was taken out from a liquid nitrogen tank and placed in a 37° C. water bath, and shaken gently for thawing as soon as possible. After thawing, the cryovial was taken out, and sterilized with an alcohol cotton ball, after which the cap was unscrewed. The cell fluid was drawn and injected into a centrifuge tube. 1 mL of complete medium containing 10% horse serum was added, and mixed uniformly. The tube was placed in a centrifuge, and centrifuged at 1000 rpm for 5 min. Afterwards, the supernatant was discarded, and complete medium was added. The mixture was pipetted repeatedly until the cells were completely dispersed and resuspended. The mixture was inoculated in a petri dish at an appropriate concentration, and cultured in a CO2 incubator at 37° C., 5% CO2, and 95% humidified air.
2.2.1 Z-138 cell culture and passage: The cells grew to about 80-90%. The medium (IMDM medium+10% horse serum+1% penicillin-streptomycin) was transferred to a 15 mL centrifuge tube, and centrifuged at 1000 rpm for 5 min. The supernatant was removed. The cells were resuspended in complete medium, and inoculated in a petri dish at the desired density. The dish was placed in an incubator at 37° C., 5% CO2, and 95% humid air. The culture medium was replenished every 2-3 days or the passage was carried out, depending on the cell growth.
After passage, Z-138 cells were resuspended in complete medium at a density of 1000 cells/well and inoculated in a 96-well culture plate. The 36 wells at the outer circumference of the 96-well plate were filled with 200 μL of PBS to prevent the culture conditions of the inner plate wells from being too different from each other due to the faster evaporation of medium at the edge. The leftmost column of the 60 inner wells were blank wells, which were not added with cells, but filled with equal volume of PBS. The remaining 54 wells were subjected to cell plating with a multichannel pipette, to each well was added 100 μL of culture medium containing corresponding cells. After cell plating was finished, the 96-well plate was tapped to make the cells evenly suspended, and placed in a 5% CO2 incubator and cultured at 37° C. for 24 h.
For Z-138 cells, in addition to the original medium (100 μL), 50 μL (3×) of drug was added, and duplicate wells were set for each concentration group. The plate was placed in a CO2 incubator and further cultured for 7 days. […]

hERG potassium channel = hERG potassium channel (Homo sapiens (Human), UniProt Q12809); experiment: Electrophysiological manual patch-clamp detection of effect on hERG potassium channel
Sequence of hERG potassium channel (Q12809 whole entry): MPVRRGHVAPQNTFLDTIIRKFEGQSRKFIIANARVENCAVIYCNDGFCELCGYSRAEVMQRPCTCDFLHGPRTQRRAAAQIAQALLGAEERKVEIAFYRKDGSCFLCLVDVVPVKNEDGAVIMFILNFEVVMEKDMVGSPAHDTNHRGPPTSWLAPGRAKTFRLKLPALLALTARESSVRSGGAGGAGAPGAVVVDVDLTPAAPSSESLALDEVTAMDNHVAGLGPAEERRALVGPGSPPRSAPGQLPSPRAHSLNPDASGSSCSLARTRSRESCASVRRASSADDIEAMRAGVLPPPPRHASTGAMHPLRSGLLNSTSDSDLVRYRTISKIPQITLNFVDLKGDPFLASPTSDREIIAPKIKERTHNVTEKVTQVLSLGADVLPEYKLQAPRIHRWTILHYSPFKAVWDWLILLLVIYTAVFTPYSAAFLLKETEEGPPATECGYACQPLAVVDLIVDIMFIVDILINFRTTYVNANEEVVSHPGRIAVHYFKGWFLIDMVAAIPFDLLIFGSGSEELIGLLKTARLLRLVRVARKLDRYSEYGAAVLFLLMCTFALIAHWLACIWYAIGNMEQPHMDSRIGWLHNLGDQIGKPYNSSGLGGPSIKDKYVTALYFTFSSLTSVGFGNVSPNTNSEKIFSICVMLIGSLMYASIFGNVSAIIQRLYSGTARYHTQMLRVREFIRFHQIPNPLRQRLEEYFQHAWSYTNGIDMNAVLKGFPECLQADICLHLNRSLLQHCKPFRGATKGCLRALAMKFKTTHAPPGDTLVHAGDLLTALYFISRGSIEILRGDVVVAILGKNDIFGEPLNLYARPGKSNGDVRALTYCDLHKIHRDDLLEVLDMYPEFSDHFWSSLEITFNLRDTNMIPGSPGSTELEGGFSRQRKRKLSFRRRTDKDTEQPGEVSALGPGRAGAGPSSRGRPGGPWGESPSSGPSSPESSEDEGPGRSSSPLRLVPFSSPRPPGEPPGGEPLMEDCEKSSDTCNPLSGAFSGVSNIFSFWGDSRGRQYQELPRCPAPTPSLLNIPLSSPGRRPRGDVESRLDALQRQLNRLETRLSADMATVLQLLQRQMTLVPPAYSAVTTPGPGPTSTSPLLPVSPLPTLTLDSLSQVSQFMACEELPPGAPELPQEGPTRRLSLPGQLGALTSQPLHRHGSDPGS
Description: Preparation of test solvents: preparation of extracellular fluid (mM): 137 NaCl, 4 KCl, 1.8 CaCl2, 1 MgCl2, 10 glucose and 10 HEPES (pH 7.4); preparation of intracellular fluid (mM): 130 KCl, 1 MgCl2, 5 EGTA, 5 MgATP and 10 HEPES (pH 7.2); preparation of negative control: extracellular fluid+0.3% DMSO; positive control: quinidine.
Compound treatment: The compound was weighed and dissolved in DMSO to prepare a 10 mM stock solution, which was diluted with DMSO to form secondary stock solutions with concentrations of 3.3, 1.1, 0.37 and 0.12 mM. 90 μL each of the stock solution and the secondary stock solutions was diluted into 30 mL of extracellular fluid for electrophysiological detection. The final concentrations of the compound were 30, 10, 3.3, 1.1 and 0.37 μM, and the final concentration of DMSO was 3:1000.
Stably transfected cell culture: The cell line was originated from HEK-293 cells overexpressing hERG potassium ion channel. […] The cells were cultured in an incubator at 37° C. and 5% CO2. When the cell density reaches 80% of the petri dish, the cells were first pre-washed with phosphate buffered saline (PBS), then digested with trypsin/EDTA for 2-3 min. Cell culture medium was added to stop the digestion. The cells were gently blown down and transferred to a centrifuge tube, and centrifuged at 1000 rpm for 3 min. The supernatant was discarded, cell culture medium was added, and the cells were mixed uniformly by gentle tapping. After that, the mixture was transferred to a petri dish for subculture, or the cells were dripped on a round glass slide and placed on a petri dish for the cells to adhere for experiments.
Experiments on electrophysiological manual patch-clamp system: The stably transfected cells were inoculated on a glass slide with a cell density lower than 50%, and cultured overnight. The experimental cells were transferred to a bath of about 1 mL embedded in an inverted microscope platform, and the extracellular fluid was perfused at a perfusion rate of 2.7 mL/min. After 5 minutes of stabilization, the experiment was started. Membrane currents were recorded using HEKA EPC-10 patch clamp amplifier and [sequence] acquisition system. All the experiments were performed at room temperature (22-24° C.). Electrodes were drawn straight using P-97 microelectrode drawing instrument (BF150-110-10) in the experiments. The inner diameter of the electrode was 1-1.5 mm, and the pipette resistance after filling with the inner liquid was 2-4 MΩ. The electrophysiological stimulation scheme of hERG potassium channel included: first setting the membrane voltage at −80 mV, applying a stimulation to the cells at +20 mV voltage for 2 s to activate the hERG potassium channel, and then repolarizing to −50 mV for 5 s to generate an outward tail current. The stimulation frequency was once every 15 s. The current value was the peak value of the tail current. The channel currents were recorded in the whole-cell recording mode. Firstly, the extracellular fluid was perfused (about 2 mL per minute) while recording was continued. When the current was stabilized (the current decay (Run-Down) was less than 5% within 5 minutes), the peak value of the tail current was the control current value. Then, the extracellular fluid containing the drug to be tested was perfused while the recording was continued until the inhibitory effect of the drug on the hERG current reached a steady state. At this time, the peak value of the tail current was the current value after drug addition. […]

Row | SMILES | IC50 (Z-138 cells) | IC50 (hERG potassium channel) | inhibitory effect on the hERG potassium channel (in words) (hERG potassium channel; conclusion from Table 4)
1 | CC(=O)N1CCC(Nc2cc(C(=O)NC[C@H](O)CN3CCc4ccccc4C3)ncn2)CC1 [Compound A, (S)-6-((1-Acetylpiperidin-4-yl)amino)-N-(3-(3,4-dihydroisoquinolin-2(1H)-yl)-2-hydroxypropyl)pyrimidine-4-carboxamide] | 19.5 nM | – | –
2 | CC(=O)N1CCC(Nc2ccc3c(c2)C(=O)N(C[C@H](O)CN2CCc4ccccc4C2)CC32CC2)CC1 [Compound B, (R)-7′-((1-Acetylpiperidin-4-yl)amino)-2′-(3-(3,4-dihydroisoquinolin-2(1H)-yl)-2-hydroxypropyl)-2′,3′-dihydro-1′H-spiro[cyclopropane-1,4′-isoquinolin]-1′-one, reference compound] | 4.33 nM | 2710 nM | –
3 | CC(=O)N1CCC(Nc2cc3c(cn2)C2(CC2)CN(C[C@H](O)CN2CCc4ccccc4C2)C3=O)CC1 [Example 1, (R)-7′-((1-acetylpiperidin-4-yl)amino)-2′-(3-(3,4-dihydroisoquinolin-2(1H)-yl)-2-hydroxypropyl)-2′,3′-dihydro-1′H-spiro[cyclopropane-1,4′-[2,6]naphthyridin]-1′-one] | 3.07 nM | 5240 nM | weak inhibitory effect
4 | CC(=O)N1CC2(CC(Nc3cc4c(cn3)C3(CC3)CN(C[C@H](O)CN3CCc5ccccc5C3)C4=O)C2)C1 [Example 2, (R)-7′-((2-acetyl-2-azaspiro[3.3]hept-6-yl)amino)-2′-(3-(3,4-dihydroisoquinolin-2(1H)-yl)-2-hydroxypropyl)-2′,3′-dihydro-1′H-spiro[cyclopropane-1,4′-[2,6]naphthyridin]-1-one] | 2.2 nM | 15100 nM | –
